Test results reported in US9796700B2 (Celgene CAR LLC, priority 2013, dated 2017).

These molecules were tested against Erk1 (Homo sapiens (Human), UniProt P27361) (assay: Protein Mass Modification Assay (intact protein MALDI)).
Type: binding
Procedure: Protein Mass Modification Assay
Intact protein: Erk1 from Millipore (Cat. No. 14-439) was incubated for 60 min. at room temperature with a 10-fold excess of test compound to protein. 4 μL aliquots of the resulting mixture were diluted with 15 μL of 0.2% TFA prior to micro C4 ZipTipping directly onto the MALDI target using sinapinic acid as the desorption matrix (10 mg/ml in 0.1% TFA:Acetonitrile 50:50, v/v). The centroid mass of the target protein in the control sample was compared with the centroid mass of the target protein incubated with compound. A shift in the centroid mass of the treated protein compared to the untreated protein was divided by the molecular weight of the compound. This number corresponds to the percentage of modified protein after one hour incubation. Results from this assay are reported in Table A under the column “ERK1 Mass Mod (%).”

Sequence of Erk1 (P27361 whole entry, looked up): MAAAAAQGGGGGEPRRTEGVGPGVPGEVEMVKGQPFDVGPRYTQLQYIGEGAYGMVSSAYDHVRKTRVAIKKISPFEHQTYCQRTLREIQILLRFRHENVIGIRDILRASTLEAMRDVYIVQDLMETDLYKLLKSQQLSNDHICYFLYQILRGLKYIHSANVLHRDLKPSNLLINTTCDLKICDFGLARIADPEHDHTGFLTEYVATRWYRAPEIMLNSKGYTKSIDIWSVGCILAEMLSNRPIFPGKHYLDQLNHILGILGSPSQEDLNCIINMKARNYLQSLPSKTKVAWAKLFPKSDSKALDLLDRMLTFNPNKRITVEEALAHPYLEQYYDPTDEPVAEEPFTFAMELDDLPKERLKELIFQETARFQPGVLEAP

ERK1 Mass Mod (%)	SMILES
E (provided a mass modification of ≧70%)	C=CC(=O)Nc1ccccc1Nc1nc(Nc2cc(C(=O)NOCCO)ccc2OC)ncc1C(F)(F)F [Compound I-74, 3-((4-((2-Acrylamidophenyl)amino)-5-(trifluoromethyl)pyrimidin-2-yl)amino)-N-(2-hydroxyethoxy)-4-methoxybenzamide]
E (provided a mass modification of ≧70%)	C=CC(=O)Nc1ccccc1Nc1nc(Nc2cc(C(=O)NOCCO)ccc2C#N)ncc1C(F)(F)F [Compound I-75, 3-((4-((2-Acrylamidophenyl)amino)-5-(trifluoromethyl)pyrimidin-2-yl)amino)-4-cyano-N-(2-hydroxyethoxy)benzamide]
E (provided a mass modification of ≧70%)	C=CC(=O)Nc1ccccc1Nc1nc(Nc2cc(C(=O)O)ccc2C)ncc1C(F)(F)F [Compound I-78, 3-((4-((2-Acrylamidophenyl)amino)-5-(trifluoromethyl)pyrimidin-2-yl)amino)-4-methylbenzoic acid]
E (provided a mass modification of ≧70%)	C=CC(=O)Nc1ccccc1Nc1nc(Nc2cc(C(=O)NC)c(F)cc2C)ncc1C(F)(F)F [Compound I-80, 5-((4-((2-Acrylamidophenyl)amino)-5-(trifluoromethyl)pyrimidin-2-yl)amino)-2-fluoro-N,4-dimethylbenzamide]
E (provided a mass modification of ≧70%)	C=CC(=O)Nc1ccccc1Nc1nc(Nc2cc(C(=O)NCCO)c(F)cc2C)ncc1C(F)(F)F [Compound I-81, 5-((4-((2-Acrylamidophenyl)amino)-5-(trifluoromethyl)pyrimidin-2-yl)amino)-2-fluoro-N-(2-hydroxyethyl)-4-methylbenzamide]
E (provided a mass modification of ≧70%)	C=CC(=O)Nc1ccccc1Nc1nc(NC(C)(C)C)ncc1C(F)(F)F [Compound I-82, N-(2-((2-(tert-Butylamino)-5-(trifluoromethyl)pyrimidin-4-yl)amino)phenyl)acrylamide]
E (provided a mass modification of ≧70%)	C=CC(=O)Nc1ccccc1Nc1nc(Nc2cc(C(N)=O)ccn2)ncc1C(F)(F)F [Compound I-83, 2-((4-((2-Acrylamidophenyl)amino)-5-(trifluoromethyl)pyrimidin-2-yl)amino)isonicotinamide]
G (proived a mass modification ≦30%)	C=C(C)S(=O)(=O)Nc1ccccc1Nc1nc(Nc2cc(C(C)=O)ccc2C)ncc1C(F)(F)F [Compound I-97, N-(2-((2-((5-acetyl-2-methylphenyl)amino)-5-(trifluoromethyl)pyrimidin-4-yl)amino)phenyl)prop-1-ene-2-sulfonamide]
G (proived a mass modification ≦30%)	C=C(C)S(=O)(=O)Nc1cc(F)ccc1Nc1nc(Nc2cc(C(C)=O)ccc2C)ncc1C(F)(F)F [Compound I-99, N-(2-((2-((5-acetyl-2-methylphenyl)amino)-5-(trifluoromethyl)pyrimidin-4-yl)amino)-5-fluorophenyl)prop-1-ene-2-sulfonamide]
E (provided a mass modification of ≧70%)	C=CC(=O)Nc1ccccc1Nc1nc(NC2CCCCC2)ncc1Cl [Compound I-107, N-(2-((5-chloro-2-(cyclohexylamino)pyrimidin-4-yl)amino)phenyl) acrylamide]
E (provided a mass modification of ≧70%)	C=CC(=O)Nc1ccccc1Nc1nc(N[C@H]2CCCN(C(C)=O)C2)ncc1Cl [Compound I-115, (S)—N-(2-((2-((1-acetylpiperidin-3-yl)amino)-5-chloropyrimidin-4-yl)amino)phenyl) acrylamide]
E (provided a mass modification of ≧70%)	C=CC(=O)Nc1ccccc1Nc1nc(NC2CCN(C(C)=O)CC2)ncc1Cl [Compound I-116, N-(2-((2-((1-acetylpiperidin-4-yl)amino)-5-chloropyrimidin-4-yl)amino)phenyl) acrylamide]
E (provided a mass modification of ≧70%)	C=CC(=O)Nc1ccccc1Nc1nc(NC2CCN(S(C)(=O)=O)CC2)ncc1Cl [Compound I-117, N-(2-((5-chloro-2-((1-(methylsulfonyl)piperidin-4-yl)amino)pyrimidin-4-yl)amino)phenyl)acrylamide]
E (provided a mass modification of ≧70%)	C=CC(=O)Nc1ccccc1Nc1nc(N[C@H]2CCCN(C=O)C2)ncc1Cl [Compound I-122, (S)—N-(2-((5-chloro-2-((1-formylpiperidin-3-yl)amino)pyrimidin-4-yl)amino)phenyl)acrylamide]
E (provided a mass modification of ≧70%)	C=CC(=O)Nc1ccccc1Nc1nc(N[C@H]2CCCNC2)ncc1Cl [Compound I-126, (S)—N-(2-((5-chloro-2-(piperidin-3-ylamino)pyrimidin-4-yl)amino)phenyl) acrylamide]
E (provided a mass modification of ≧70%)	C=CC(=O)Nc1ccccc1Nc1nc(NC2CCC(F)(F)CC2)ncc1Cl [Compound I-127, N-(2-((5-chloro-2-((4,4-difluorocyclohexyl)amino)pyrimidin-4-yl)amino)phenyl) acrylamide]
E (provided a mass modification of ≧70%)	C=CC(=O)Nc1ccccc1Nc1nc(N[C@@H]2CCCN(C(C)=O)C2)ncc1Cl [Compound I-128, (R)—N-(2-((2-((1-acetylpiperidin-3-yl)amino)-5-chloropyrimidin-4-yl)amino)phenyl) acrylamide]
E (provided a mass modification of ≧70%)	C=CC(=O)Nc1ccccc1Nc1nc(N[C@H]2CC[C@H](C(N)=O)CC2)ncc1Cl [Compound I-129, trans-4-((4-((2-acrylamidophenyl)amino)-5-chloropyrimidin-2-yl)amino)-cyclohexanecarboxamide]
E (provided a mass modification of ≧70%)	C=CC(=O)Nc1ccccc1Nc1nc(N[C@H]2CCCN(C(=O)C(C)(C)O)C2)ncc1Cl [Compound I-135, (S)—N-(2-((5-chloro-2-((1-(2-hydroxy-2-methylpropanoyl)piperidin-3-yl)amino)pyrimidin-4-yl)amino)phenyl)acrylamide]
E (provided a mass modification of ≧70%)	C=CC(=O)Nc1ccccc1Nc1nc(N[C@H]2CCCN(C(=O)[C@H](C)O)C2)ncc1Cl [Compound I-138, N-(2-((5-chloro-2-(((S)-1-((S)-2-hydroxypropanoyl)piperidin-3-yl)amino)pyrimidin-4-yl)amino)phenyl)acrylamide]
E (provided a mass modification of ≧70%)	C=CC(=O)Nc1ccccc1Nc1nc(Nc2ccc(N3CCNCC3)cc2OC(F)F)ncc1Cl [Compound I-142, N-(2-((5-chloro-2-((2-(difluoromethoxy)-4-(piperazin-1-yl)phenyl)amino)pyrimidin-4-yl)amino)phenyl)acrylamide]
E (provided a mass modification of ≧70%)	C=CC(=O)Nc1ccccc1Nc1nc(Nc2ccc3c(c2OC)CCCC(=O)N3CCN2CCOCC2)ncc1Cl [Compound I-145, N-(2-((5-chloro-2-((6-methoxy-1-(2-morpholinoethyl)-2-oxo-2,3,4,5-tetrahydro-1H-benzo[b]azepin-7-yl)amino)pyrimidin-4-yl)amino)phenyl)acrylamide]
E (provided a mass modification of ≧70%)	C=CC(=O)Nc1ccccc1Nc1nc(Nc2ccc3c(c2OC)CCCC(=O)N3CCCN2CCOCC2)ncc1Cl [Compound I-146, N-(2-((5-chloro-2-((6-methoxy-1-(3-morpholinopropyl)-2-oxo-2,3,4,5-tetrahydro-1H-benzo[b]azepin-7-yl)amino)pyrimidin-4-yl)amino)phenyl)acrylamide]

SMILES	ERK1 Mass Mod (%)
C=CC(=O)Nc1ccccc1Nc1nc(Nc2cc(C(=O)NOCCO)ccc2C)ncc1C(F)(F)F [Compound I-73, 3-((4-((2-Acrylamidophenyl)amino)-5-(trifluoromethyl)pyrimidin-2-yl)amino)-N-(2-hydroxyethoxy)-4-methylbenzamide]	E (key: E: provided a mass modification of ≧70%; F: provided a mass modification of 31-69%; G: proived a mass modification ≦30%)
C=CC(=O)Nc1cc(C)ccc1Nc1nc(Nc2cc(OC)nc(N3CCN(CC)CC3)c2)ncc1C(F)(F)F [Compound I-89, N-(2-((2-((2-(4-Ethylpiperazin-1-yl)-6-methoxypyridin-4-yl)amino)-5-(trifluoromethyl)pyrimidin-4-yl)amino)-5-methylphenyl)acrylamide]	F (provided a mass modification of 31-69%)
C=CC(=O)Nc1cc(C)ccc1Nc1nc(Nc2cc(OC)nc(N3CCN(C(C)=O)CC3)c2)ncc1C(F)(F)F [Compound I-93, N-(2-((2-((2-(4-Acetylpiperazin-1-yl)-6-methoxypyridin-4-yl)amino)-5-(trifluoromethyl)pyrimidin-4-yl)amino)-5-methylphenyl)acrylamide]	E (key: E: provided a mass modification of ≧70%; F: provided a mass modification of 31-69%; G: proived a mass modification ≦30%)
C=CC(=O)Nc1cc(C)ccc1Nc1nc(Nc2cc(OC)nc(N3CCOCC3)c2)ncc1C(F)(F)F [Compound I-94, N-(2-((2-((2-Methoxy-6-morpholinopyridin-4-yl)amino)-5-(trifluoromethyl)pyrimidin-4-yl)amino)-5-methylphenyl)acrylamide]	F (provided a mass modification of 31-69%)
C=CC(=O)Nc1ccccc1Nc1nc(Nc2ccc(N3CCOCC3)cc2OC)ncc1C#N [Compound I-143, N-(2-((5-cyano-2-((2-methoxy-4-morpholinophenyl)amino)pyrimidin-4-yl)amino)phenyl)acrylamide]	F (provided a mass modification of 31-69%)
C=CC(=O)Nc1ccccc1Nc1nc(Nc2ccc(N3CCOCC3)cc2OC)ncc1N [Compound I-144, N-(2-((5-amino-2-((2-methoxy-4-morpholinophenyl)amino)pyrimidin-4-yl)amino)phenyl) acrylamide]	F (provided a mass modification of 31-69%)
